# Values quoted from earlier work, collected in patent publication US20250352520A1, “USE OF DEXPRAMIPEXOLE FOR THE TREATMENT OF EOSINOPHILIC COPD” (Areteia Therapeutics, Inc., priority 2024, published 2025).
# Read-outs that look alike come from different tables or passages of the source.
# B1: mepolizumab: a humanized monoclonal antibody against interleukin-5 (antibody, chains of the INN, looked up, V domains shown)
# VH: QVTLRESGPALVKPTQTLTLTCTVSGFSLTSYSVHWVRQPPGKGLEWLGVIWASGGTDYNSALMSRLSISKDTSRNQVVLTMTNMDPVDTATYYCARDPPSSLLRLDYWGRGTPVTVSS
# VL: DIVMTQSPDSLAVSLGERATINCKSSQSLLNSGNQKNYLAWYQQKPGQPPKLLIYGASTRESGVPDRFSGSGSGTDFTLTISSLQAEDVAVYYCQNVHSFPFTFGGGTKLEIK
# Tests used:
# [1] = severe, uncontrolled, eosinophilic asthma; cited from earlier work
# [2] = patients with COPD, cited from earlier work
# [3] = cited from earlier work
# [4] = COPD; cited from earlier work
Molecule,eosinophils [1],exacerbations [1],lung function [1],"blood eosinophils ([2]; all doses, throughout the trial)",exacerbations [2],asthma exacerbations [3],biomarkers of asthma control [3],blood eosinophil counts [4],lung function and clinical outcomes [4]
benralizumab: an anti-interleukin-5 receptor monoclonal antibody,effectively depleted eosinophils,decreased exacerbations,improved lung function,substantial depletion of blood eosinophils,failed to show statistically significant reduction of exacerbations,–,–,–,–
B1,–,–,–,–,–,significantly reduced asthma exacerbations,"associated with improvements in biomarkers of asthma control, including eosinophil counts",effectively reduced blood eosinophil counts,not associated with consistent improvements in lung function and clinical outcomes
